According to patent US10647673B2, “Acetophenone compound, preparation method thereof, and application thereof in fatty liver prevention and treatment” (Nanjing Bioenergy Medicine Science & Technology Co., Ltd., priority 2017, dated 2020):
“Also recorded” adds a separate entry of the source.

How the values were obtained:
Type in all cases: in vivo
[1] = test system: ob/ob mice; experiment: Weight loss experiment in ob/ob mice; settings: for body weight of ob/ob mice: orlistat 40 mg/kg, other pharmaceuticals 80 mg/kg intragastric, x ± s, n = 6; for effect on body weight compared with Orlistat (in words) / effect on body weight (in words): ob/ob mice; for effect on body weight compared with Orlistat (in words): 80 mg/kg vs orlistat 40 mg/kg; for effect on body weight (in words): 80 mg/kg, as compared with Model group
Description: […] ob/ob mice, male, 18-20 g of body weight, fed adaptively for one week before use. The mice were randomly divided into Control group, Model group, Orlistat group, Compound 13 group and Compound 14 group, with 6 mice in each group.
(§1) appropriate amounts of orlistat, Compound 13 and Compound 14 were weighed respectively, added with 0.5% CMC-Na and grinded to dissolve.
After feeding for one week, the mice were intragastrically administrated with the pharmaceuticals except the mice of Control group. The dose was 40 mg/kg body weight for orlistat, 80 mg/kg for the other pharmaceuticals. The body weight of the mice was weighed every week during the experiment which lasted for 28 days.

[2] = test system: nutritive obesity C57 mice; experiment: Weight loss experiment in nutritive obesity C57 mice; design: key to body weight of mice: body weight in g; settings: for body weight of mice: high-fat diet, orlistat 40 mg/kg, Compounds 13 and 14 80 mg/kg intragastric, x ± s, n = 6; for effect on body weight compared with Orlistat (in words) / effect on body weight (in words): nutritive obesity C57 mice; for effect on body weight compared with Orlistat (in words): 80 mg/kg vs orlistat 40 mg/kg; for effect on body weight (in words): 80 mg/kg, as compared with Model group
Description: C57 mice, male, 18-20 g of body weight. The mice were randomly divided into Control group, Model group, Orlistat group, Compound 13 group and Compound 14 group, with 6 mice in each group.
as §1
The mice in Control group were fed with normal diet, and the other mice were fed with high-fat diet. All of the mice had free access to water. After one week of feeding, the pharmaceuticals were intragastrically administrated. The dose was 40 mg/kg body weight for orlistat, 80 mg/kg for Compounds 13 and 14. The body weight of the mice was weighed every week during the experiment which lasted for 28 days.

[3] = test system: fatty liver of the SD rats; experiment: Pathological sections and grading of fatty liver of SD rats; settings: compounds 80 mg/kg, Sim 10 mg/kg, OCA 10 mg/kg
Experimental: 500 g of lard oil was taken, placed in a container, and heated to melt. When the temperature rose to 100° C., it was added with 200 g of cholesterol to dissolve completely, and then further added with 20 g of propylthiouracil. The resulted mixture was stirred well, and added with 500 ml of Tween 80 after dissolution, resulting in an oil phase. At the same time, 600 mL of distilled water and 400 mL of 1,2-propanediol were taken and heated to 60° C. in a water bath, then were added with 40 g of sodium deoxycholate. The resulted mixture was stirred well until realizing complete dissolution, so as to give an aqueous phase. The aqueous phase was added into the oil phase and mixed well to give a lipid emulsion. The lipid emulsion was heated in a water bath of 37° C. before intragastric administration to animals.
An appropriate amount of pharmaceutical was weighed, added with 0.5% CMC-Na, and mixed homogeneously by grinding. There are groups for Compound 01 (80 mg/kg), Compound 02 (80 mg/kg), Compound 03 (80 mg/kg), Compound 04 (80 mg/kg), Compound 05 (80 mg/kg), Compound 06 (80 mg)/kg), Compound 07 (80 mg/kg), Compound 08 (80 mg/kg), Compound 09 (80 mg/kg), Compound 10 (80 mg/kg), Compound 11 (80 mg/kg), Compound 12 (80 mg/kg), Compound 13 (80 mg/kg), Compound 14 (80 mg/kg), Compound 15 (80 mg/kg), Compound 16 (80 mg/kg), Compound 17 (80 mg/kg), Compound 18 (80 mg/kg), Compound 19 (80 mg/kg), Compound 20 (80 mg/kg), Compound 21 (80 mg/kg), and Compound 22 (80 mg/kg).
Male SD rats weighing 180-200 g were fed adaptively for 7 days. Based on body weight, 10 animals were used as control and the remaining animals were intragastrically administered with the lipid emulsion every day, 1 ml/100 g body weight for 14 days. After fasting for 12 hours, 1 mL of blood was collected from the orbits of the animals, and was determined by Hitachi Automatic Biochemical Analyzer 7080 for serum cholesterol (CHO), triglyceride (TG), low density lipoprotein (LDL-C) and high density lipoprotein (HDL-C).
The modeled rats were continued with the intragastric administration of the lipid emulsion. At the same time, the pharmaceutical-administered groups were administrated with a corresponding dose of pharmaceuticals, while the Model group was administrated with an equal volume of solvent. The pharmaceutical-administered groups were administrated with the lipid emulsion in the morning, and with the pharmaceuticals in the afternoon. The animals were measured for the body weight once a week, and were observed. After 14 days of continuous administration, 1 mL of blood was collected from the orbits, and was determined for the contents of triglyceride, cholesterol, low density lipoprotein and high density lipoprotein in blood serum.

[4] = Experiment Day 0, in g (unit assumed)
[5] = Experiment Day 7, in g (unit assumed)
[6] = Experiment Day 14, in g (unit assumed)
[7] = Experiment Day 21, in g (unit assumed)

Row | SMILES | body weight of ob/ob mice [1, 4] | body weight of ob/ob mice [1, 5] | body weight of ob/ob mice [1, 6] | body weight of ob/ob mice [1, 7] | body weight of ob/ob mice ([1]; Experiment Day 28) | effect on body weight compared with Orlistat (in words) [1] | effect on body weight (in words) [1] | body weight of mice [2, 4] | body weight of mice [2, 5] | body weight of mice [2, 6] | body weight of mice [2, 7] | body weight of mice ([2]; Experiment Day 28) | effect on body weight compared with Orlistat (in words) [2] | effect on body weight (in words) [2] | Pathological grading: Steatotic hepatocytes ([3]; animal 1) | Pathological grading: Steatotic hepatocytes ([3]; animal 2) | Pathological grading: Steatotic hepatocytes ([3]; animal 3) | Pathological grading: Steatotic hepatocytes ([3]; animal 4) | Pathological grading: Steatotic hepatocytes ([3]; animal 5) | Pathological grading: Infiltration of inflammatory cells ([3]; animal 1)
1 | CC(=O)c1ccc(O)c(OC(=O)C(C)(C)CCCOc2cc(C)ccc2C)c1 [Compound 13] | 20.74 ± 1.10 | 21.43 ± 0.61 | 22.10 ± 0.16 | 24.53 ± 1.76 | 26.10 ± 1.95 | better effect than Orlistat | obvious effects on weight loss; also recorded: significantly decrease the body weight of the ob/ob mice | 17.20 ± 1.92 | 19.97 ± 0.57 | 21.04 ± 0.29 | 22.14 ± 0.31 | 23.25 ± 0.26 | better effect than Orlistat | obvious effects on weight loss; also recorded: significantly decrease the body weight of the mice from Day 14 | + (25-45% of hepatocytes undergoing steatosis) | ++ (45-65% of hepatocytes undergoing steatosis) | + (25-45% of hepatocytes undergoing steatosis) | ++ (45-65% of hepatocytes undergoing steatosis) | ++ (45-65% of hepatocytes undergoing steatosis) | –
2 | CC(=O)c1ccc(O)c(OC(=O)c2cccnc2)c1 [Compound 14] | 20.79 ± 0.39 | 21.22 ± 0.38 | 22.18 ± 0.42 | 24.10 ± 0.45 | 26.17 ± 0.86 | better effect than Orlistat | obvious effects on weight loss; also recorded: significantly decrease the body weight of the ob/ob mice | 17.21 ± 1.57 | 19.83 ± 0.71 | 20.87 ± 0.75 | 21.89 ± 0.77 | 22.92 ± 0.88 | better effect than Orlistat | obvious effects on weight loss; also recorded: significantly decrease the body weight of the mice from Day 14 | + (25-45% of hepatocytes undergoing steatosis) | – | + (25-45% of hepatocytes undergoing steatosis) | + (25-45% of hepatocytes undergoing steatosis) | – | 0
